From patent US20050107346A1, “N-acetylcolchinol-o-phosphate combination therapies with vascular damaging activity” (ASTRAZENECA AB, priority 2000, published 2005)

Key:
[1] = system: human Calu 6 tumour cells; test: Calu 6 tumour model growth delay, ZD6126 in combination with cisplatin; assay type: in vivo; conditions: athymic nude mice; ZD6126 100 mg/kg i.p. x5 days; cisplatin 4 mg/kg i.p. day 0
Method: In a second tumour model, Calu 6, the advantage of combining ZD6126 and cisplatin (cis-Platinum(II)Diammine Dichloride—Sigma P-4394) was confirmed. Athymic nude mice were implanted subcutaneously with 1×10^6 human Calu 6 tumour cells (obtained from American Type Culture Collection, 10801 University Boulevard, Manassas, Va. 20110-2209 Cat. no. Hm-56) and tumours allowed to grow until they were approximately 9 mm in diameter. Groups of 10 tumour bearing mice were then treated as follows:
ZD6126 alone was dosed 100 mg/kg i.p. on days 0, 1, 2, 3, 4.
Cisplatin alone was dosed 4 mg/kg i.p. on day 0.
In the combination arm cisplatin 4 mg/kg i.p. was dosed on day 0, and ZD6126 100 mg/kg i.p. was dosed on days 1, 2, 3, 4 and 5.
The combination of cisplatin and ZD6126 gave a growth delay (time to reach 2× starting volume) of 20.5 days compared to control tumours.

[2] = system: murine KHT sarcoma; test: KHT sarcoma tumour cell survival (excision and colony formation), ZD6126 and radiation; assay type: in vivo, mice
Method: The murine KHT sarcoma grown in C3H mice was also used to confirm the advantage of combining ZD6126 and radiation. Tumours were treated with either radiation alone (0, 5, 10, 15 or 20 Gy single dose), ZD6126 100 mg/kg i.p., or radiation followed 1 hour later by ZD6126 100 mg/kg i.p.. The effects of either radiation alone, ZD6126 alone or the combination on tumour cell survival was assessed 24 hours later by excising the tumour, disaggregating the cells and determining the number of colonies formed after 10-14 days. Surviving fraction compared to untreated cells was then determined.

[3] = system: murine adenocarcinoma CaNT tumour; test: CaNT tumour model growth delay, ZD6126 in combination with cisplatin; assay type: in vivo, mice
Method: ZD6126 alone was dosed on days 0, 2 and 4 using a split dose regimen of 100 mg/kg ZD6126, followed by a 2 hour interval, followed by a further 100 mg/kg ZD6126; doses were given intraperitoneally (i.p.).
Cisplatin (David Bull Laboratories) alone was dosed at 5 mg/kg i.p on day 0.
(§1) The combination treatment consisted of: • Day 0: ZD6126 100 mg/kg i.p., followed by a 2 hour interval, followed by a further 100 mg/kg ZD6126 i.p; and cisplatin 5 mg/kg given 10 minutes before first ZD6126 dose. • Days 2 and 4: ZD6126 100 mg/kg i.p., followed by a 2 hour interval, followed by a further 100 mg/kg ZD6126 i.p..
ZD6126 alone was dosed on days 0, 4, 7 and 11 using a split dose regimen of ZD6126 100 mg/kg i.p., followed by a 2 hour interval, followed by a further 100 mg/kg ZD6126 i.p.. Cisplatin alone was dosed at 5 mg/kg i.p on day 0 and day 7.
as §1, with “• Days 0 and 7:” for “• Day 0:”, “ZD6126 i.p.;” for “ZD6126 i.p; and”, “cisplatin” for “cisplatin 5 mg/kg”, “Days 3, 7” for “Days 2”, “and 10:” for “and 4:”

[4] = system: murine adenocarcinoma CaNT tumour; test: In vivo cell survival excision assay, ZD6126 single versus divided doses in CaNT tumours; parameters: species or system mice
Method: In vivo cell survival was measured using an excision assay (D J Chaplin et al., Anticancer Research 19: 189-196 (1999)).
For each of the assays a) and b) below, the surviving fraction of tumour cells was determined as follows:
Tumours were excised at about 18 hours after treatment, weighed and disaggregated for 1 hour at 37 degrees Celsius in an enzyme cocktail containing 1 mg/ml pronase, 0.5 mg/ml DNAase and 0.5 mg/ml collagenase. Haemocytometer counts of trypan blue-excluding cells were made and viable cells seeded in appropriate concentrations to yield about 50 colonies/dish after in vitro incubation. Heavily irradiated feeder cells (V79 cells) were used at a concentration of 25,000/ml to support the growth of the surviving CaNT cells. The data were calculated as surviving fraction per gram of tumour.
ZD6126 was administered as a single dose of […] intra-peritoneally (i.p.) in saline with a small amount of 1% sodium carbonate added to aid the dissolution of ZD6126.
ZD6126 was dosed using a split dose regimen of 100 mg/kg ZD6126, followed by a time interval, followed by a further 100 mg/kg ZD6126; doses were given intraperitoneally (i.p.) in saline with a small amount of 1% sodium carbonate added to aid the dissolution of ZD6126.
The time intervals used were 1, 2, 3, 4 and 6 hours.
This improved effect varied with the proportion of total dose given in the first and second doses.
ZD6126 was dosed using split dose regimens of: • i) 25 mg/kg ZD6126, followed by a 2 hour interval, followed by a further 175 mg/kg ZD6126; • ii) 50 mg/kg ZD6126, followed by a 2 hour interval, followed by a further 150 mg/kg ZD6126; • iii) 100 mg/kg ZD6126, followed by a 2 hour interval, followed by a further 100 mg/kg ZD6126; • iv) 150 mg/kg ZD6126, followed by a 2 hour interval, followed by a further 50 mg/kg ZD6126; • v) 175 mg/kg ZD6126, followed by a 2 hour interval, followed by a further 25 mg/kg ZD6126;
All doses were given intraperitoneally (i.p.) in saline with a small amount of 1% sodium carbonate added to aid the dissolution of ZD6126.

[5] = system: FaDu cells (human squamous cell carcinoma of the pharynx); test: FaDu tumour model growth delay, ZD6126 in combination with paclitaxel; assay type: in vivo; conditions: SCID mice; single dose ZD6126 125 mg/kg i.p.; paclitaxel 15 mg/kg i.p.
Method: In a third tumour model 5×10^5FaDu cells (human squamous cell carcinoma of the pharynx) were implanted onto the rear dorsum of 12-16 week old, female SCID mice. When the tumours had become established they were excised and cut into small tumour fragments approximately 1 mm^3. These fragments were implanted subcutaneously into further SCID mice. Once these tumours had become established (approximately 6 mm diameter) mice were treated with either a single dose of ZD6126 (125 mg/kg i.p.) alone, a single dose of paclitaxel (Taxol-BMS) (15 or 30 mg/kg i.p.) alone or the combination of a single dose of paclitaxel (15 mg/kg i.p.) and ZD6126 (125 mg/kg i.p.), paclitaxel being given 15 minutes before ZD6126.

[6] = system: CaNT tumours; test: CaNT tumour model growth delay, ZD6126 in combination with ionising radiation; assay type: in vivo, mice; conditions: ZD6126 125 mg/kg i.p. days 0-4 and 7-11; radiation 15 Gy days 0 and 7
Method: The activity of combining ZD6126 and radiation in the CaNT tumour model was also investigated. Tumours were treated with either radiation alone (15 Gy days 0 and 7), ZD6126 alone (single dose of ZD6126 125 mg/kg i.p. on days 0, 1, 2, 3, 4, 7, 8, 9, 10 and 11), or a combination of both (15 Gy days 0 and 7, ZD6126 125 mg/kg i.p. on days 0, 1, 2, 3, 4, 7, 8, 9, 10 and 11). On the days radiation and ZD6126 were administered together,radiation treatment was given 3 hours after ZD6126 administration. Radiation was administered by placing the mice in lead boxes so that only the tumour bearing portion of the rear dorsum was exposed to a horizontal X-ray beam (Sheldon and Hill, B J C, 35, 795-808, […]). Mice were irradiated with 240 kV X-rays at a dose rate of 3.6 Gy/min.

[7] = system: murine KHT sarcoma; test: KHT sarcoma tumour cell survival (excision and colony formation), cisplatin plus ZD6126; assay type: in vivo; conditions: 10 mg/kg cisplatin i.p. alone; assessed 24 hours later
Method: In the murine KHT sarcoma model (Lingyun Li, B. S. et al, Int. J. Radiation Oncology Biol. Phys 42, 899-903, 1998) tumours were treated with either 10 mg/kg cisplatin i.p. alone or 10 mg/kg cisplatin plus ZD6126 (10-100 mg/kg i.p.), cisplatin given 1 hour prior to ZD6126. The effects of the treatments on tumour cell survival was assessed 24 hours later by excising the tumour, disaggregating the cells and determining the number of colonies formed after 10-14 days. Surviving fraction compared to untreated cells was then determined.

[8] = study 1, ZD6126 2x100 mg/kg i.p. 2 h apart days 0, 2, 4, cisplatin 5 mg/kg i.p. day 0
[9] = study 2, ZD6126 2x100 mg/kg i.p. 2 h apart days 0, 4, 7, 11, cisplatin 5 mg/kg i.p. days 0 and 7

Structure (SMILES)	growth delay (time to reach 2× starting volume) compared to control tumours [1] [days]	tumour cells killed ([2]; ZD6126 alone 100 mg/kg)	enhancement in cell killing ([2]; ZD6126 combined with radiation doses of 5, 10 or 15 Gy)	Plus ZD6126 % cell survival ([2]; radiation dose 0 Gy, ZD6126 100 mg/kg i.p., C3H mice) [%]	ZD6126 Enhancement ([2]; radiation dose 0 Gy, ZD6126 100 mg/kg i.p., over controls) [fold]	Plus ZD6126 % cell survival ([2]; radiation dose 5 Gy, ZD6126 100 mg/kg i.p. 1 hour later) [%]	ZD6126 Enhancement ([2]; radiation dose 5 Gy, ZD6126 100 mg/kg i.p.) [fold]	Plus ZD6126 % cell survival ([2]; radiation dose 10 Gy, ZD6126 100 mg/kg i.p. 1 hour later) [%]	ZD6126 Enhancement ([2]; radiation dose 10 Gy, ZD6126 100 mg/kg i.p.) [fold]	Plus ZD6126 % cell survival ([2]; radiation dose 15 Gy, ZD6126 100 mg/kg i.p. 1 hour later) [%]	ZD6126 Enhancement ([2]; radiation dose 15 Gy, ZD6126 100 mg/kg i.p.) [fold]	Mean growth delay (vs control) - days [3, 8] [days]	Mean growth delay (vs control) - days [3, 9] [days]	split dose proportion giving the best anti-tumour effect ([4]; 100 mg/kg, 2 hour interval, further 100 mg/kg i.p.)	anti-tumour effect, as measured by surviving fraction of tumour cells, divided doses versus single dose ([4]; divided doses 2 hours apart (25+175, 50+150, 100+100, 150+50, 175+25 mg/kg i.p.) vs single 200 mg/kg)	surviving fraction per gram of tumour, divided doses versus single dose ([4]; two doses of 100 mg/kg i.p. separated by 2, 3 or 4 hours vs a single 200 mg/kg dose, about 18 hours after treatment)	Mean growth delay (vs control) - days [5] [days]	Mean growth delay (vs control) - days [6] [days]	cell killing [7]
COc1cc2c(c(OC)c1OC)-c1ccc(OP(=O)(O)O)cc1[C@@H](NC(C)=O)CC2 [ZD6126, (5S)-5-(acetylamino)-9,10,11-trimethoxy-6,7-dihydro-5H-dibenzo[a,c]cyclohepten-3-yl dihydrogen phosphate]	10.1	97-98%	100-200 fold	2.5	40	0.16	125	0.015	100	0.0016	219	6.5	9.9	best effect was seen with equal split doses	greater with divided doses of ZD6126 than with a single dose	significantly more effective	4.3	9.1	–
N.N.[Cl-].[Cl-].[Pt+2] [Cisplatin, cis-Platinum(II)Diammine Dichloride, reference compound]	6.0	–	–	–	–	–	–	–	–	–	–	2.1	7.7	–	–	–	–	–	approximately 98%
CC(=O)O[C@H]1C(=O)[C@@]2(C)[C@H]([C@H](OC(=O)c3ccccc3)[C@]3(O)C[C@H](OC(=O)[C@H](O)[C@@H](NC(=O)c4ccccc4)c4ccccc4)C(C)=C1C3(C)C)[C@]1(OC(C)=O)CO[C@@H]1C[C@@H]2O [Paclitaxel, paclitaxel, reference compound]	–	–	–	–	–	–	–	–	–	–	–	–	–	–	–	–	5.1	–	–
